The subject of the test is Male rats. Description: Assay method for serum calcium reducing activity (potency against Research Standard B). Type of test: in vivo, rat. As to conditions: intravenous injection 0.2 ml, serum calcium 1 hour after injection, versus Research Standard B. On the procedure: The assay method for serum calcium reducing activity, the carrier and developing system for thin layer chromatography and conditions for amino acid analysis are as follows:
Sample is diluted adequately with 0.1 N sodium acetate - 0.1% albumin solution. Male rats are subjected individually to intravenous injection with 0.2 ml. of the respective diluted solutions. After 1 hour, all the rats are killed to obtain their respective blood, and serum calcium value of each blood sample is determined by atomic absorption spectrophotomery. On the other hand, Research Standard B, which is an extract obtained from the thyroid gland of the hog, is diluted so as to give dilutions of 2.5, 5, 10 and 20 MRC mU/0.2 ml. respectively. Male rats are subjected to intravenous injection with 0.2 ml. of the respective diluted solutions. Following the same procedure as above, the serum calcium value of the rats is determined one hour after injection. From the potency of the corresponding Research Standard, the potency of the calcitonin in the sample is determined.

Where a SMILES comes first, the peptide text is derived from it. Bridges are numbered along the chain shown (N, C = ends). [ ]: non-standard residue; d: D form. Asu = N[C@@H](CCCCCC(=O)O)C(=O)O

As to `CC(C)C[C@H](NC(=O)[C@H](CCCCN)NC(=O)CNC(=O)[C@H](CC(C)C)NC(=O)[C@@H](NC(=O)[C@@H]1CCCCCC(=O)N[C@@H](CO)C(=O)N[C@@H](CC(N)=O)C(=O)N[C@@H](CC(C)C)C(=O)N[C@@H](CO)C(=O)N[C@@H]([C@@H](C)O)C(=O)N1)C(C)C)C(=O)N[C@@H](CO)C(=O)N[C@@H](CCC(N)=O)C(=O)N[C@@H](CCC(=O)O)C(=O)N[C@@H](CC(C)C)C(=O)N[C@@H](Cc1c[nH]cn1)C(=O)N[C@@H](CCCCN)C(=O)N[C@@H](CC(C)C)C(=O)N[C@@H](CCC(N)=O)C(=O)N[C@H](C(=O)N[C@@H](Cc1ccc(O)cc1)C(=O)N1CCC[C@H]1C(=O)N[C@@H](CCCNC(=N)N)C(=O)N[C@H](C(=O)N[C@@H](CC(=O)O)C(=O)N[C@H](C(=O)NCC(=O)N[C@@H](C)C(=O)NCC(=O)N[C@H](C(=O)N1CCC[C@H]1C(N)=O)[C@@H](C)O)C(C)C)[C@@H](C)O)[C@@H](C)O` [Example 1] (SNLST[Asu]VLGKLSQELHKLQTYPRTDVGAGTP-NH2; lactam N-6), the “potency of the purified product (serum calcium reducing activity)” value turned out to be 3450 MRC U/mg.

The record behind these values is patent US4086221A, “Polypeptides and process for producing the same” (Toyo Jozo Kabushiki Kaisha, priority 1975, dated 1978).
